Measurements from patent US20040053882A1, “Combination chemotherapy” (priority 2000, published 2004).
Read-outs that look alike come from different tables or passages of the source. Values belong to the compound of their own block, whether it stands above or below them.

Experiments:
41McisR ovarian line = conditions: resistance to cisplatin due to reduced uptake
[1] = monotherapy Phase I trial, interim results; cited from earlier work
[2] = test system: CH1 human ovarian carcinoma cell line; experiment: cells; conditions: read-out: IC50 growth inhibition
Description: (§1) Growth inhibition (using the sulforhodamine B assay) was determined for ZDO473 alone, and combined either simultaneously or administered sequentially (following washing) for 24 hours with paclitaxel. The effect of the drug combinations was analysed using median effect analysis.

[3] = test system: A2780 human ovarian carcinoma cell line; experiment: cells
Description: as §1

ADJ/PC6cisR tumour = experiment: Murine acquired cisplatin resistant tumour; conditions: tumour totally resistant to other platinum agents
[4] = test system: cisplatin-resistant CH1 ovarian tumour xenograft; experiment: Cisplatin-resistant CH1 ovarian tumour xenograft; conditions: even when progressing on cisplatin treatment
human tumour xenografts = experiment: In-vivo studies in human tumour xenografts; conditions: compared with cisplatin
[5] = test system: A2780cisR acquired cisplatin resistant subline; experiment: Growth inhibition (sulforhodamine B assay), A2780cisR; format: cell-based, human; conditions: for IC50: A2780cisR, drug alone
Description: as §1

[6] = test system: A2780 E6 (A2780 subline transfected with E6 human papillomavirus gene); experiment: Growth inhibition (sulforhodamine B assay), A2780E6; format: cell-based

Compound: Cc1ccccn1.N.[Cl-].[Cl-].[Pt+2] [ZDO473, (SP-4-3)-(cis-amminedichloro-[2-methylpyridine]platinum (II)]
- ability to overcome cisplatin resistance (41McisR ovarian line): showed the ability to overcome resistance
- dose-limiting toxicity [1]: bone marrow suppression
- kidney or nerve toxicity [1]: no evidence of kidney or nerve toxicity
- IC50 ([2]; CH1, 96 hour continuous exposure, drug alone): 3300 nM
- IC50 ([3]; read-out: IC50 growth inhibition, A2780, 96 hour continuous exposure, drug alone): 3700 nM
- activity against acquired cisplatin resistant murine tumour (ADJ/PC6cisR tumour): some activity was seen
- activity versus cisplatin-resistant xenograft [4]: Activity was retained
- activity in human tumour xenografts (human tumour xenografts): at least comparable and in some cases superior to that of cisplatin
- recommended dose for phase II studies, initial (every 3 weeks): 120 mg/m^2
- current recommended dose (patients who tolerate higher doses): 150 mg/m^2
- antitumour activity in patients (small & non-small cell lung cancer, mesothelioma, head and neck, breast and ovarian cancers): Evidence of antitumour activity has been observed
- cross-resistance of A2780cisR ([5]; A2780cisR versus A2780): 4.2 fold
- IC50 ([5]; 96 hour continuous exposure): 15600 nM
- IC50 ([6]; 96 hour continuous exposure, drug alone): 8600 nM

- IC50 ([2]; Homo sapiens, Ovarian carcinoma cell): 3.1 nM
- IC50 ([3]; Homo sapiens, A2780, read-out: IC50 growth inhibition): 2.5 nM
- IC50 ([5]; Homo sapiens): 3.5 nM
- IC50 ([6]; Homo sapiens, A2780/E6, drug alone): 20.8 nM
Compound: CC(=O)O[C@H]1C(=O)[C@@]2(C)[C@H]([C@H](OC(=O)c3ccccc3)[C@]3(O)C[C@H](OC(=O)[C@H](O)[C@@H](NC(=O)c4ccccc4)c4ccccc4)C(C)=C1C3(C)C)[C@]1(OC(C)=O)CO[C@@H]1C[C@@H]2O [Paclitaxel, paclitaxel, reference compound]

Compound: N.N.[Cl][Pt][Cl] [cisplatin, cis-dichlorodiammine platinum (II), reference compound]
- acquired cisplatin resistance of subline ([5]; A2780cisR versus A2780): 15 fold
